According to patent US9802941B2, “Compounds and methods for inhibiting histone demethylases” (Gilead Sciences, Inc., priority 2014, dated 2017):
Read-outs that look alike come from different tables or passages of the source.

Legend:
Assay type in all cases: biochemical
KDM4C (JMJD2C) = target: T1, KDM4C (JMJD2C) (Homo sapiens, UniProt Q9H3R0); assay: Histone lysine demethylase AlphaLISA assay, KDM4C
T1 construct: KDM4C; BRIC, Denmark; 1-349; E. coli; host or cells: E. coli
T1 sequence (Q9H3R0 1-349): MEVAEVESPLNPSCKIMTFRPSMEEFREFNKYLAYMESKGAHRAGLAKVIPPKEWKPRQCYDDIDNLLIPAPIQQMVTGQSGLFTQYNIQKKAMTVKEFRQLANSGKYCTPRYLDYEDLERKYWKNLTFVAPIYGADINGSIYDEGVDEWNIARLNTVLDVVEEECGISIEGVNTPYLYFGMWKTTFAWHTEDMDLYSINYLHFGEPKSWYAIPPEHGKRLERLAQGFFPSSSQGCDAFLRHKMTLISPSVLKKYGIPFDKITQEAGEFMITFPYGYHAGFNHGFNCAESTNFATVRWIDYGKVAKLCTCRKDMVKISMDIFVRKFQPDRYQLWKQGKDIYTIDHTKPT
Outline: (§1)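 Enzyme was preincubated in buffer (50 mM Hepes pH 7.4-8.0, 0.003-0.01% Tween-20, 0.1% BSA, 5 μM (NH4)2Fe(SO4)2), then added to compound in DMSO and incubated 10 minutes before substrate. After reaction at room temperature, acceptor and streptavidin donor beads were added and AlphaLISA signal read.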

KDM2B (FBXL10) = target: T2, KDM2B (FBXL10) (Homo sapiens, UniProt Q8NHM5); assay: Histone lysine demethylase AlphaLISA assay, KDM2B
T2 construct: KDM2B; BPS,; 1-650; Bac; purchased BPS Bioscience, US; host or cells: baculovirus system
T2 sequence (Q8NHM5 1-650): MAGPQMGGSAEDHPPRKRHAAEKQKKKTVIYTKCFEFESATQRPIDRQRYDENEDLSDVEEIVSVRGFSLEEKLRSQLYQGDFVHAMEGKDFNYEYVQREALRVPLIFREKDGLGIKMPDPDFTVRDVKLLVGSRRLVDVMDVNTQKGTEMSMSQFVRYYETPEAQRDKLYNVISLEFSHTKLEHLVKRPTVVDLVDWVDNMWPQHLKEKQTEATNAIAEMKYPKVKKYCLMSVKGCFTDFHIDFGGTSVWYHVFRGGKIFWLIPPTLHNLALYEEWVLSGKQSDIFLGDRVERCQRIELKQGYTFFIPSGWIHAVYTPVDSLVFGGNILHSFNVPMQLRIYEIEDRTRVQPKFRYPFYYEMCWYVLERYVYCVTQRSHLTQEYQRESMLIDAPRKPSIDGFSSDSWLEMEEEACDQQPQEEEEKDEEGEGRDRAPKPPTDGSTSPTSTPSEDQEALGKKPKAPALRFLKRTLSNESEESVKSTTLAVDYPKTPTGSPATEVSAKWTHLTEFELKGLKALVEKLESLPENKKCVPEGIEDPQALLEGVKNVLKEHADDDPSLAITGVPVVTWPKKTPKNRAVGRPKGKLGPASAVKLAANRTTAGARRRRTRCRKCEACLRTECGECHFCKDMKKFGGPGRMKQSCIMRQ
Outline: as §1

PHF8 (KDM7) = target: T3, PHF8 (KDM7) (Homo sapiens, UniProt Q9UPP1); assay: Histone lysine demethylase AlphaLISA assay, PHF8
T3 construct: KDM7 (PHF8); BRIC; 1-1322; Bac
Outline: as §1

KDM6A (UTX) = target: T4, KDM6A (UTX) (Homo sapiens, UniProt O15550); assay: Histone lysine demethylase AlphaLISA assay, KDM6A
T4 construct: KDM6A (UTX); BRIC; 919-1401; E. coli; host or cells: E. coli
Protocol: The compounds of the application, or a pharmaceutically acceptable salt, or solvate, or prodrug thereof, are tested in an in vitro AlphaLISA assay. Enzymes are dissolved in enzyme buffer and incubated before they are added to DMSO solutions of compounds of the application, or a pharmaceutically acceptable salt, or solvate, or prodrug thereof, in enzyme buffer. The reaction mixture is then incubated for an additional period of time before substrate solution is added and then the resulting mixture again incubated. Acceptor beads and suspended Epigenetic Buffer from stock are added and the suspension is again incubated before a suspension of streptavidin donor beads in Epigenetic Buffer is added. After an additional period of incubation, the plates are read.
The ability of compounds of the application to inhibit the histone lysine demethylase activity in vitro of different enzymes was determined.
The reaction mixture was incubated for another 10 minutes before 5 μL of substrate solution was added and the resulting mixture was then incubated at room temperature. […] After incubation at room temperature in the dark, the plates were read.
Enzyme Buffer: 50 mM Hepes (pH 7.4-8.0), 0.003-0.01% Tween-20, 0.1% BSA; 5 μM (NH4)2Fe(SO4)2.

KDM5B (PLU-1) = target: T5, KDM5B (PLU-1) (Homo sapiens, UniProt Q9UGL1); assay: Histone lysine demethylase AlphaLISA assay, KDM5B
T5 construct: BRIC; 1-809; E. coli; host or cells: E. coli
T5 sequence (Q9UGL1 1-809): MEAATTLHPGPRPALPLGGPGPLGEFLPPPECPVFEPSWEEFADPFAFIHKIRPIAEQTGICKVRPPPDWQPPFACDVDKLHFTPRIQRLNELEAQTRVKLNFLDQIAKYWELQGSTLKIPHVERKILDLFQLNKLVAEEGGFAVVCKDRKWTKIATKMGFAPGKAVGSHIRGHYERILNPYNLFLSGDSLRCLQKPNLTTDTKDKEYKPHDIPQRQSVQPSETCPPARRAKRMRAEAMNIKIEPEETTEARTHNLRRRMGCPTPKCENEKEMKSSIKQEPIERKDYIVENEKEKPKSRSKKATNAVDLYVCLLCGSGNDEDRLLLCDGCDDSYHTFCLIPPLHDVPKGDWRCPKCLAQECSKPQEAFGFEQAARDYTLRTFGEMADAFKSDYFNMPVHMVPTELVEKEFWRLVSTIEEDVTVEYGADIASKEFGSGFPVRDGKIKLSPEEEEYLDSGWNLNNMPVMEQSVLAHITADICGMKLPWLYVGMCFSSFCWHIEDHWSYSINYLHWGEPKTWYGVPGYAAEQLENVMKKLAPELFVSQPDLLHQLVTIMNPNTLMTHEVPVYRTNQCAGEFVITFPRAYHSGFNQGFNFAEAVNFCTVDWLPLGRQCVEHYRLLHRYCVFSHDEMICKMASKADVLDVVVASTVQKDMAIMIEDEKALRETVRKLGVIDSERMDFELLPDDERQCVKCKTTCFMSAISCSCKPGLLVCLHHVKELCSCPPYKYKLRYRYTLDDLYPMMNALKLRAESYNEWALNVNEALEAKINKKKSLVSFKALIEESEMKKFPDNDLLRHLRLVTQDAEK
Outline: as §1

[1] = AlphaLISA assay, read-out: HDME Inhibition KDM4C (IC50)
[2] = AlphaLISA, in vitro, read-out: HDME Inhibition KDM4C
[3] = AlphaLISA, in vitro, read-out: HDME Inhibition KDM2B
[4] = AlphaLISA, in vitro, read-out: HDME Inhibition PHF8
[5] = AlphaLISA assay, read-out: HDME Inhibition KDM6A (IC50)
[6] = AlphaLISA, in vitro, read-out: HDME Inhibition KDM6A
[7] = AlphaLISA assay, read-out: HDME Inhibition KDM5B (IC50)
[8] = AlphaLISA, in vitro, read-out: HDME Inhibition KDM5B
[9] = AlphaLISA assay, read-out: HDME Inhibition KDM2B (IC50)
[10] = AlphaLISA assay, read-out: HDME Inhibition PHF8 (IC50)

T3 sequence (Q9UPP1 37-440 limits assumed): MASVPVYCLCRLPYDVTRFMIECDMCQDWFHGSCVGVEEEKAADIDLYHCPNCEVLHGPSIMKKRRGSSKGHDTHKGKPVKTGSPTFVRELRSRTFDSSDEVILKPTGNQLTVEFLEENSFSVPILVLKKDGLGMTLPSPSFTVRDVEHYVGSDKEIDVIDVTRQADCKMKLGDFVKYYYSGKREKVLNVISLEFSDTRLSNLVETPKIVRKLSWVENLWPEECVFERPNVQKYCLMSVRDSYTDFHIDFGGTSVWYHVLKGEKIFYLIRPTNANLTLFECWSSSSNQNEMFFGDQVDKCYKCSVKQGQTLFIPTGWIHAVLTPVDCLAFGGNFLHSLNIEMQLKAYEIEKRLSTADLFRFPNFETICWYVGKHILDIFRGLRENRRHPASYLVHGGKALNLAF
T4 sequence (O15550 919-1401): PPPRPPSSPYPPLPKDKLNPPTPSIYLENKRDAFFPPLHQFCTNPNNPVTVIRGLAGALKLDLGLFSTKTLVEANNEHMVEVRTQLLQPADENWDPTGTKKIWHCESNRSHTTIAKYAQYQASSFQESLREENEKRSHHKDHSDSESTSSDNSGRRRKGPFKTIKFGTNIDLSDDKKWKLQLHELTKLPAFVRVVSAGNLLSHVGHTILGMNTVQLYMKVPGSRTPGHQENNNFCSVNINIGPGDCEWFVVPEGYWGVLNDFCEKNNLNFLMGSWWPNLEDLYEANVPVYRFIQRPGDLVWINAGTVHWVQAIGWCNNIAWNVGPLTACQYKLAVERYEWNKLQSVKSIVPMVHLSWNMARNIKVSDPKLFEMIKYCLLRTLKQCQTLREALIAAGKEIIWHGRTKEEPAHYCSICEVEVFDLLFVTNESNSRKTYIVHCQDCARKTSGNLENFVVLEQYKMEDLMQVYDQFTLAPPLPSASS

Row | SMILES | IC50 (KDM4C (JMJD2C); [1]) [µM] | IC50 (KDM4C (JMJD2C); [2]) [µM] | IC50 (KDM2B (FBXL10); [3]) [µM] | IC50 (PHF8 (KDM7); [4]) [µM] | IC50 (KDM6A (UTX); [5]) [µM] | IC50 (KDM6A (UTX); [6]) [µM] | IC50 (KDM5B (PLU-1); [7]) [µM] | IC50 (KDM5B (PLU-1); [8]) [µM] | IC50 (KDM2B (FBXL10); [9]) [µM] | IC50 (PHF8 (KDM7); [10]) [µM] | IC50 (KDM5B (PLU-1)) [µM]
1 | Cc1cc(C(=O)O)cc(CNCc2nc3c(n2Cc2ccc(F)cc2)CCC3)n1 [Compound 25, 2-{[({1-[(4-fluorophenyl)methyl]-1H,4H,5H,6H-cyclopenta[d]imidazol-2-yl}methyl)amino]methyl}-6-methylpyridine-4-carboxylic acid] | > 10 | > 10 | 1.13 | 1.21 | > 10 | > 10 | > 10 | > 10 |  |  | 
2 | C/C=C\c1cnc(CNCc2cc(C(=O)O)cc(C)n2)n1Cc1ccc(F)cc1 [Compound 35, 2-{[({1-[(4-fluorophenyl)methyl]-5-[(1Z)-prop-1-en-1-yl]-1H-imidazol-2-yl}methyl)amino]methyl}-6-methylpyridine-4-carboxylic acid] | > 10 | > 10 | 0.117 | 0.437 | > 10 | > 10 | > 10 | > 10 |  |  | 
3 | CCCCCc1cccnc1CCNCc1cc(C(=O)O)cc(C)n1 [Compound 16, 2-methyl-6-({[2-(3-pentylpyridin-2-yl)ethyl]amino}methyl)pyridine-4-carboxylic acid] | > 10 | > 10 | > 6.8 | 3.49 | > 9 | > 9 | > 10 | > 10 | > 6.8 |  | 
4 | COc1ccc(CCn2ccnc2CNCc2cc(C(=O)O)cc(C)n2)cc1OC [Compound 22, 2-{[({1-[2-(3,4-dimethoxyphenyl)ethyl]-1H-imidazol-2-yl}methyl)amino]methyl}-6-methylpyridine-4-carboxylic acid] | > 10 | > 10 | > 10 | > 10 | > 10 | > 10 | > 10 | > 10 | > 10 | > 10 | 
5 | Cc1cc(C(=O)O)cc(CNCc2nnc(C)n2Cc2ccc(F)cc2)n1 [Compound 37, 2-{[({4-[(4-Fluorophenyl)methyl]-5-methyl-4H-1,2,4-triazol-3-yl}methyl)amino]methyl}-6-methylpyridine-4-carboxylic acid] | > 10 | > 10 | 0.297 | 0.489 | > 10 | > 10 | > 10 | > 10 |  |  | 
6 | Cc1cc(C(=O)O)cc(CNCc2ncc(CCc3ccccc3)n2Cc2ccc(F)cc2)n1 [Compound 28, 2-{[({1-[(4-fluorophenyl)methyl]-5-(2-phenylethyl)-1H-imidazol-2-yl}methyl)amino]methyl}-6-methylpyridine-4-carboxylic acid] | > 10 | > 10 | 0.462 | 1.06 | > 10 | > 10 | > 10 | > 10 |  |  | 
7 | COc1ccc(CCn2ccnc2CNCc2cc(C(=O)O)cc(C)n2)cc1 [Compound 17, 2-{[({1-[2-(4-methoxyphenyl)ethyl]-1H-imidazol-2-yl}methyl)amino]methyl}-6-methylpyridine-4-carboxylic acid] | > 10 | > 10 | > 10 | > 10 | > 10 | > 10 | > 10 | > 10 | > 10 | > 10 | 
8 | Cc1cc(C(=O)O)cc(CNCCc2ncccc2-c2ccsc2)n1 [Compound 34, 2-methyl-6-[({2-[3-(thiophen-3-yl)pyridin-2-yl]ethyl}amino)methyl]pyridine-4-carboxylic acid] | > 10 | > 10 | 1.24 | > 10 | > 10 | > 10 | > 10 | > 10 |  | > 10 | 
9 | Cc1cc(C(=O)O)cc(CNCc2ncc(CCCc3ccccc3)n2Cc2ccc(F)cc2)n1 [Compound 31, 2-{[({1-[(4-fluorophenyl)methyl]-5-(3-phenylpropyl)-1H-imidazol-2-yl}methyl)amino]methyl}-6-methylpyridine-4-carboxylic acid] | > 10 | > 10 | 3.97 | > 10 | > 10 | > 10 | > 10 | > 10 |  | > 10 | 
10 | CCCCc1cccnc1CCNCc1cc(C(=O)O)cc(C)n1 [Compound 15, 2-({[2-(3-butylpyridin-2-yl)ethyl]amino}methyl)-6-methylpyridine-4-carboxylic acid] | > 10 | > 10 | 5.68 | > 6 | > 10 | > 10 | > 10 | > 10 |  | > 6 | 
11 | C=Cc1cc(C(=O)O)cc(CNCc2nccn2Cc2ccc(F)cc2)n1 [Compound 12, 2-ethenyl-6-{[({1-[(4-fluorophenyl)methyl]-1H-imidazol-2-yl}methyl)amino]methyl}pyridine-4-carboxylic acid] | > 10 | > 10 | 1.6 | > 10 | > 10 | > 10 |  |  |  | > 10 | 3.76
